Experiment [1] concerns the target T1, Discoidin domain-containing receptor 2 (Homo sapiens) (UniProt Q16832).
T1 sequence (whole entry): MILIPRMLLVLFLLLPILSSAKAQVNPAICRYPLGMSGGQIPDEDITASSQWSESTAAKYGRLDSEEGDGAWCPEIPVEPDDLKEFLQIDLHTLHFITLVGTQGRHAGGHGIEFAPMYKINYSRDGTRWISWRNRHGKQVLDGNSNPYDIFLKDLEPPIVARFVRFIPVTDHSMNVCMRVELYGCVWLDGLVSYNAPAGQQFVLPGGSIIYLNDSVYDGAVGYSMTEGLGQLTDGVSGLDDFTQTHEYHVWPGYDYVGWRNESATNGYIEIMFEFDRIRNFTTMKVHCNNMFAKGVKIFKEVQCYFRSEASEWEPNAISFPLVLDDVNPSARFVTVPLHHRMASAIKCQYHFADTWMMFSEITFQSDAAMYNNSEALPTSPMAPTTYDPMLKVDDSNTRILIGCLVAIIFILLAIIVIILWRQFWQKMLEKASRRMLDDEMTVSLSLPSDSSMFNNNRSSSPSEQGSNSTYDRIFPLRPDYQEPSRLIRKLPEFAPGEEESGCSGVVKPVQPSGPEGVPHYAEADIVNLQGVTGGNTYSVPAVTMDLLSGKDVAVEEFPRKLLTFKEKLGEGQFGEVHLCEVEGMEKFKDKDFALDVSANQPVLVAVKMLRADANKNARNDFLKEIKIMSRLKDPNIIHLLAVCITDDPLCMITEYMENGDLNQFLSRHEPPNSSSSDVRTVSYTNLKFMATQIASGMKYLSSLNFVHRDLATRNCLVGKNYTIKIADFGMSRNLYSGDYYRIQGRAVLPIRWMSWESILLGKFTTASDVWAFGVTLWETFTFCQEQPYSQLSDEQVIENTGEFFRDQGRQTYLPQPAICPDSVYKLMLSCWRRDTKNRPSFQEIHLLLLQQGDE
As to the kind of experiment: Inhibition of DDR2 (unknown origin) assessed as remaining activity at 1 uM using fluorescein-poly GAT as substrate in presence of ATP by TR-FRET assay relative to control.

The target in experiment [2] is BDNF/NT-3 growth factors receptor (Homo sapiens) (UniProt Q16620). As to the kind of experiment: Inhibition of TRK-B (unknown origin) assessed as remaining activity at 1 uM using fluorescein-poly GAT as substrate in presence of ATP by TR-FRET assay relative to control.
The target in experiment [3] is NT-3 growth factor receptor (Homo sapiens) (UniProt Q16288). As to the kind of experiment: Inhibition of TRK-C (unknown origin) assessed as remaining activity at 1 uM using fluorescein-poly GAT as substrate in presence of ATP by TR-FRET assay relative to control.
In experiment [4] the target is High affinity nerve growth factor receptor (Homo sapiens) (UniProt P04629). As to the kind of experiment: Inhibition of TRK-A (unknown origin) assessed as remaining activity at 1 uM using fluorescein-poly GAT as substrate in presence of ATP by TR-FRET assay relative to control.

Activity data for 35 compounds are collected here from ChEMBL document CHEMBL5528029, “Design, synthesis, and biological evaluation of novel discoidin domain receptor inhibitors for the treatment of lung adenocarcinoma and pulmonary fibrosis” (Eur J Med Chem, 2024).

Sequence of BDNF/NT-3 growth factors receptor (Homo sapiens) (Q16620 32-822 limits assumed): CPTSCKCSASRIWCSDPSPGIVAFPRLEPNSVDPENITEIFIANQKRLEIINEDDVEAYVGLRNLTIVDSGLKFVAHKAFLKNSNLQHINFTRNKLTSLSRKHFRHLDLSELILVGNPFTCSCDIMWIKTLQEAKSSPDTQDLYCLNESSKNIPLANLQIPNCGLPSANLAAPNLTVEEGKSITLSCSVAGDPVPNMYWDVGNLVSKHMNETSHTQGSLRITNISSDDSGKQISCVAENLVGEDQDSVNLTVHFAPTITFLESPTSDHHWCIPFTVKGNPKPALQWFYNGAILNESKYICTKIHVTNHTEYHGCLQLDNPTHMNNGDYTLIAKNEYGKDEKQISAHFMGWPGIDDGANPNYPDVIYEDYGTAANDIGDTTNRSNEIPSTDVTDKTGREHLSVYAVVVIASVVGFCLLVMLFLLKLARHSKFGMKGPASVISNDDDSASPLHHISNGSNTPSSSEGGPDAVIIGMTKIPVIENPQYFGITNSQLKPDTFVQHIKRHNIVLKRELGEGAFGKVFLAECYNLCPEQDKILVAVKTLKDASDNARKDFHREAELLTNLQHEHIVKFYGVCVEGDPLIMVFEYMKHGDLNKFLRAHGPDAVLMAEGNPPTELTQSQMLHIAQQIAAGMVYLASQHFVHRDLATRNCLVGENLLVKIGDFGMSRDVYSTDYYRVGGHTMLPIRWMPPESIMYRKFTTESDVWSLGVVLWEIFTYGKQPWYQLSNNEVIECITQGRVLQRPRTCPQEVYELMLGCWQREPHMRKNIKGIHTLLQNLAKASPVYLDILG
Sequence of NT-3 growth factor receptor (Homo sapiens) (Q16288 32-839 limits assumed): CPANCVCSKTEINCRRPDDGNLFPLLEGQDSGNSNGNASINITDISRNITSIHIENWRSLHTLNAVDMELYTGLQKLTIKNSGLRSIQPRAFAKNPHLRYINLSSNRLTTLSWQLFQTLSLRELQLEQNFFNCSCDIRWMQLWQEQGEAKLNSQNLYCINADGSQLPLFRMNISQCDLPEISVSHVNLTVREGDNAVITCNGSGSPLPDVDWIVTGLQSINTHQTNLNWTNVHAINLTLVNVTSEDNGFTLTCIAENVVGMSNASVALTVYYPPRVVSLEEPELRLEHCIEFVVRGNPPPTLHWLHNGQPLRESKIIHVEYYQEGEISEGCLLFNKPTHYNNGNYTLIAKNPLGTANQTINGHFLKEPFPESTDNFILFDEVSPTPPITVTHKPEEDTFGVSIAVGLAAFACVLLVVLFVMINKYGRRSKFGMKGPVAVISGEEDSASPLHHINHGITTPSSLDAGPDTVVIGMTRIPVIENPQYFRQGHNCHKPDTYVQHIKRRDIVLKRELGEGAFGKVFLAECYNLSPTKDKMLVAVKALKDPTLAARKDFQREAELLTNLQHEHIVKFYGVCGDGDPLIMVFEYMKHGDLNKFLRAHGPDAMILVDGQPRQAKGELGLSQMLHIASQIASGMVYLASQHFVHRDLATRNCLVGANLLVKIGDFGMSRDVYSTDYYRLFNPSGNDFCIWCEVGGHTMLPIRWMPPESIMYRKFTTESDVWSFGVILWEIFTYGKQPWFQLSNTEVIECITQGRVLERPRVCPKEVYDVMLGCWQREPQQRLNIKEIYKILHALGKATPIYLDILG
Sequence of High affinity nerve growth factor receptor (Homo sapiens) (P04629 33-796 limits assumed): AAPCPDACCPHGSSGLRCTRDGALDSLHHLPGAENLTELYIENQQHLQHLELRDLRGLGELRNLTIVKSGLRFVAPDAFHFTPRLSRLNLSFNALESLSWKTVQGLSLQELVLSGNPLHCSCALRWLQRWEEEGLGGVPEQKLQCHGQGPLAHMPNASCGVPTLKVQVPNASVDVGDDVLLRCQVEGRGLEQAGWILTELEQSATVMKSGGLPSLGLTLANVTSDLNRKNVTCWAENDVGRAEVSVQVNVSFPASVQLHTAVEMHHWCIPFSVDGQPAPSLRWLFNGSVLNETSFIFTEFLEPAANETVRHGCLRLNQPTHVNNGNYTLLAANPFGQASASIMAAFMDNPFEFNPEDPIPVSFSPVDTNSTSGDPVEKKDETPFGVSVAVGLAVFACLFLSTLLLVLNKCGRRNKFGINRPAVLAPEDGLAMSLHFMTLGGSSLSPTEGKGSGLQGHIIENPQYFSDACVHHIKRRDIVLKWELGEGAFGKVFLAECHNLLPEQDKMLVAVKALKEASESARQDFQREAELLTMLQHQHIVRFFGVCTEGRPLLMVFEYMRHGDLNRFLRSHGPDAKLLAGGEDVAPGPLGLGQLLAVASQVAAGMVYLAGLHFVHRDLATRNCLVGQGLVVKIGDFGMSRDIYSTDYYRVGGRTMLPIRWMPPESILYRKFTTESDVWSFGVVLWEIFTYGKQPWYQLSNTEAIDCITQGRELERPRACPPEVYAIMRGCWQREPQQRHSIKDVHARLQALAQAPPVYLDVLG

`COc1ccc2c(c1)c(CNC(=O)Nc1ccc(C)cc1)cn2CC(=O)N1CCOCC1`: the Activity in experiment [1] turned out to be 89.6%; in experiment [2] it was 84%; in experiment [3], 87.5%; in experiment [4] it was 81.3%.

With `Cc1ccc(NC(=O)NCc2cn(CC(=O)N3CCOCC3)c3ccc(F)cc23)cc1`, the Activity is 72.4% in experiment [1], 83.8% in experiment [2], 111% in experiment [3] and 114% in experiment [4].

As for `COc1ccc2c(c1)c(CNC(=O)Nc1ccc(C(F)(F)F)cc1)cn2CC(=O)N1CCOCC1`, the Activity in experiment [1] worked out at 82.2%; in experiment [2] it was 79%; in experiment [3], 103%; in experiment [4] it was 71.8%.

For `COc1ccc(NC(=O)NCc2cn(CC(=O)N3CCN(C)CC3)c3ccc(F)cc23)cc1`, the Activity in experiment [1] worked out at 73.5%; in experiment [2], 104%; in experiment [3], 106%; in experiment [4] it was 80%.

For the compound `O=C(NCc1cn(CC(=O)N2CCOCC2)c2ccc(F)cc12)Nc1ccc(C(F)(F)F)cc1`, the Activity was 90.2% in experiment [1], 72.2% in experiment [2], 98.3% in experiment [3] and 77.5% in experiment [4].

As to `COc1ccc2c(c1)c(CNC(=O)Nc1ccc(C)cc1)cn2CC(=O)N1CCCC1`, the Activity in experiment [1] amounted to 84.8%; in experiment [2] it was 87.9%; in experiment [3], 77.5%; in experiment [4], 75.2%.

Consider `COc1ccc2c(c1)c(CNC(=O)Nc1ccc(C(F)(F)F)cc1)cn2CC(=O)N1CCN(C)CC1`, for which the Activity is 102% in experiment [1], 104% in experiment [2], 106% in experiment [3] and 96% in experiment [4].

`Cc1ccc(NC(=O)NCc2cn(CC(=O)N3CCN(C)CC3)c3ccc(F)cc23)cc1`: the Activity is 78.2% in experiment [1], 90.4% in experiment [2], 104% in experiment [3] and 91.7% in experiment [4].

Regarding `COc1ccc(NC(=O)NCc2cn(CC(=O)N3CCOCC3)c3ccc(OC)cc23)cc1`, the Activity was 95.3% in experiment [1], 92.5% in experiment [2], 89% in experiment [3] and 98.9% in experiment [4].

For `COc1ccc(NC(=O)NCc2cn(CC(=O)N3CCCCC3)c3ccc(F)cc23)cc1`, the Activity in experiment [1] was found to be 80.6%; in experiment [2], 80.1%; in experiment [3] it was 101%; in experiment [4], 92.7%.

Take `O=C(NCc1cn(CC(=O)N2CCOCC2)c2ccc(F)cc12)Nc1ccccc1Cl`: the Activity came out at 54.5% in experiment [1], 83.8% in experiment [2], 87.4% in experiment [3] and 78% in experiment [4].

`CN1CCN(C(=O)Cn2cc(CNC(=O)Nc3ccc(C(F)(F)F)cc3)c3cc(F)ccc32)CC1`: the Activity in experiment [1] is 74.2%; in experiment [2], 105%; in experiment [3], 93.7%; in experiment [4], 81.5%.

For the compound `COc1ccc(NC(=O)NCc2cn(CC(=O)N3CCCC3)c3ccc(OC)cc23)cc1`, the Activity in experiment [1] worked out at 91.5%; in experiment [2], 102%; in experiment [3], 88.1%; in experiment [4], 113%.

Turning to `COc1ccc2c(c1)c(CNC(=O)Nc1ccc(C(F)(F)F)cc1)cn2CC(=O)N1CCCCC1`, the Activity is 73.8% in experiment [1], 74.9% in experiment [2], 105% in experiment [3] and 91.6% in experiment [4].

Consider `COc1ccc2c(c1)c(CNC(=O)Nc1ccc(F)cc1F)cn2CC(=O)N1CCCCC1`, for which the Activity turned out to be 74.8% in experiment [1], 70.8% in experiment [2], 68.6% in experiment [3] and 84.7% in experiment [4].

Turning to `Cc1ccc(NC(=O)NCc2cn(CC(=O)N3CCCC3)c3ccc(F)cc23)cc1`, the Activity in experiment [1] is 95.4%; in experiment [2] it was 99.5%; in experiment [3] it was 91.2%; in experiment [4], 101%.

As to `COc1ccc2c(c1)c(CNC(=O)Nc1ccc(C(F)(F)F)cc1)cn2CC(=O)N1CCCC1`, the Activity is 99.5% in experiment [1], 72.2% in experiment [2], 89.7% in experiment [3] and 90.4% in experiment [4].

Consider `COc1ccc(NC(=O)NCc2cn(CC(=O)N3CCCCC3)c3ccc(OC)cc23)cc1`, for which the Activity in experiment [1] is 72.4%; in experiment [2], 87.4%; in experiment [3] it was 92.7%; in experiment [4], 92.1%.

`COc1ccc2c(c1)c(CNC(=O)Nc1ccc(F)cc1F)cn2CC(=O)N1CCOCC1`: the Activity in experiment [1] is 74.7%; in experiment [2] it was 73.1%; in experiment [3] it was 60.5%; in experiment [4] it was 77.8%.

Take `CN1CCN(C(=O)Cn2cc(CNC(=O)Nc3ccccc3Cl)c3cc(F)ccc32)CC1`: the Activity amounted to 73.5% in experiment [1], 89.6% in experiment [2], 90.2% in experiment [3] and 81.8% in experiment [4].

Take `COc1ccc2c(c1)c(CNC(=O)Nc1ccc(F)cc1F)cn2CC(=O)N1CCN(C)CC1`: the Activity in experiment [1] was 66.5%; in experiment [2] it was 88.9%; in experiment [3] it was 68.8%; in experiment [4], 93.1%.

For `COc1ccc2c(c1)c(CNC(=O)Nc1ccc(C)cc1)cn2CC(=O)N1CCCCC1`, the Activity was 83.2% in experiment [1], 85.7% in experiment [2], 92.5% in experiment [3] and 82.3% in experiment [4].

For `Cc1ccc(NC(=O)NCc2cn(CC(=O)N3CCCCC3)c3ccc(F)cc23)cc1`, the Activity turned out to be 92.5% in experiment [1], 97% in experiment [2], 99.7% in experiment [3] and 99.7% in experiment [4].

As to `COc1ccc2c(c1)c(CNC(=O)Nc1ccccc1Cl)cn2CC(=O)N1CCN(C)CC1`, the Activity in experiment [1] stood at 55.9%; in experiment [2] it was 93.4%; in experiment [3], 82.9%; in experiment [4], 94%.

In the case of `COc1ccc2c(c1)c(CNC(=O)Nc1ccc(C)cc1)cn2CC(=O)N1CCN(C)CC1`, the Activity worked out at 96.2% in experiment [1], 108% in experiment [2], 90.9% in experiment [3] and 98.7% in experiment [4].

`O=C(NCc1cn(CC(=O)N2CCCCC2)c2ccc(F)cc12)Nc1ccc(C(F)(F)F)cc1`: the Activity in experiment [1] came out at 70.1%; in experiment [2], 108%; in experiment [3], 105%; in experiment [4] it was 87%.

Turning to `O=C(NCc1cn(CC(=O)N2CCCCC2)c2ccc(F)cc12)Nc1ccccc1Cl`, the Activity in experiment [1] was 48%; in experiment [2], 75.7%; in experiment [3] it was 84.2%; in experiment [4] it was 90.3%.

Regarding `COc1ccc(NC(=O)NCc2cn(CC(=O)N3CCCC3)c3ccc(F)cc23)cc1`, the Activity in experiment [1] was 86.3%; in experiment [2] it was 83.8%; in experiment [3], 110%; in experiment [4], 71.6%.

Turning to `COc1ccc(NC(=O)NCc2cn(CC(=O)N3CCN(C)CC3)c3ccc(OC)cc23)cc1`, the Activity is 93.4% in experiment [1], 108% in experiment [2], 94.5% in experiment [3] and 108% in experiment [4].

As for `COc1ccc2c(c1)c(CNC(=O)Nc1ccccc1Cl)cn2CC(=O)N1CCCC1`, the Activity in experiment [1] stood at 67.8%; in experiment [2], 99.3%; in experiment [3] it was 69.6%; in experiment [4], 95.7%.

For the compound `O=C(NCc1cn(CC(=O)N2CCCC2)c2ccc(F)cc12)Nc1ccc(C(F)(F)F)cc1`, the Activity in experiment [1] is 81.1%; in experiment [2] it was 101%; in experiment [3], 94.3%; in experiment [4], 101%.

As to `COc1ccc2c(c1)c(CNC(=O)Nc1ccccc1Cl)cn2CC(=O)N1CCOCC1`, the Activity was 54.7% in experiment [1], 97.2% in experiment [2], 86% in experiment [3] and 91.7% in experiment [4].

Regarding `COc1ccc2c(c1)c(CNC(=O)Nc1ccccc1Cl)cn2CC(=O)N1CCCCC1`, the Activity is 64.3% in experiment [1], 87.4% in experiment [2], 68.9% in experiment [3] and 74.8% in experiment [4].

On to `O=C(NCc1cn(CC(=O)N2CCCC2)c2ccc(F)cc12)Nc1ccccc1Cl`, for which the Activity in experiment [1] was 73.8%; in experiment [2], 81.5%; in experiment [3], 68.6%; in experiment [4], 78%.

With `COc1ccc(NC(=O)NCc2cn(CC(=O)N3CCOCC3)c3ccc(F)cc23)cc1`, the Activity in experiment [1] is 79.4%; in experiment [2], 107%; in experiment [3], 82.7%; in experiment [4], 90.8%.
